This experiment has as its target human TREK-1 (Homo sapiens (Human), UniProt O95069). Put plainly: TREK-1 Thallium (Tl+) flux assay. Conditions: CHO-K1 cells stably expressing human TREK-1. The format is cell-based.
human TREK-1, sequence (O95069 whole entry): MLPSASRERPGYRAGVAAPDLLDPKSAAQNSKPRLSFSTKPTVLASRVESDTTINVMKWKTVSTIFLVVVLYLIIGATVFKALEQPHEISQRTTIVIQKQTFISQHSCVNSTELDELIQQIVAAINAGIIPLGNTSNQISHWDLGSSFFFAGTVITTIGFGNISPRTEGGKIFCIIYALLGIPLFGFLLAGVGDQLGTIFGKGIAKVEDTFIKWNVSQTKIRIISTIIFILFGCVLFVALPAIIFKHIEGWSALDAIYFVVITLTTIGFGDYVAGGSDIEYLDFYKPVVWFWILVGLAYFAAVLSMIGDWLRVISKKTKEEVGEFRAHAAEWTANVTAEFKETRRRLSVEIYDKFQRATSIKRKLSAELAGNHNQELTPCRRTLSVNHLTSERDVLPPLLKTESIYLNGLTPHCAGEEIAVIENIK
For the compound `Cc1cc(COc2ccccc2)ccc1NC(=O)c1cc(NC(=O)OC(C)(C)C)ccc1Cl` [Compound 26, tert-butyl (4-chloro-3-((2-methyl-4-(phenoxymethyl)phenyl)carbamoyl)phenyl)carbamate], the IC50 (usually the midpoint of a concentration-inhibition curve) was found to be 0.67 µM.
On to `Cc1cc(C#Cc2ccccc2)cnc1NC(=O)c1cc(OC[C@@H]2COCCO2)ccc1Cl` [Compound 23, 2-chloro-5-[[(2S)-1,4-dioxan-2-yl]methoxy]-N-[3-methyl-5-(2-phenylethynyl)-2-pyridyl]benzamide], for which half-maximal inhibition (IC50) was put at 0.21 µM.
Then `Cc1cc(C#Cc2ccccc2)cnc1NC(=O)c1cc(C(=O)N2CC(O)(C(F)(F)F)C2)ccc1Cl` [Compound 79, 2-chloro-5-[3-hydroxy-3-(trifluoromethyl)azetidine-1-carbonyl]-N-[3-methyl-5-(2-phenylethynyl)-2-pyridyl]benzamide], with 0.87 µM.
Then `CCn1ccc(-c2ccc(Cl)c(C(=O)Nc3ncc(C#Cc4ccccc4)cc3C)c2)n1` [Compound 64, 2-chloro-5-(1-ethylpyrazol-3-yl)-N-[3-methyl-5-(2-phenylethynyl)-2-pyridyl]benzamide], with 0.2 µM.
In turn, `Cc1cc(C#Cc2ccccc2)cnc1NC(=O)c1cc(OCC2COCCO2)ccc1Cl` (centres unmarked) [Compound 22, 2-chloro-5-(1,4-dioxan-2-ylmethoxy)-N-[3-methyl-5-(2-phenylethynyl)-2-pyridyl]benzamide] had an IC50 of 0.13 µM.
As for `Cc1cc(C#Cc2ccccc2)cnc1NC(=O)c1cc(-c2cnn(CCN3CCOCC3)c2)ccc1Cl` [Compound 62, 2-chloro-N-[3-methyl-5-(2-phenylethynyl)-2-pyridyl]-5-[1-(2-morpholinoethyl)pyrazol-4-yl]benzamide], the figure is 0.17 µM; as for `Cc1cc(C#Cc2ccccc2)cnc1NC(=O)c1cc(NC(=O)OC(C)(C)C)ccc1F` [Compound 50, tert-butyl N-[4-fluoro-3-[[3-methyl-5-(2-phenylethynyl)-2-pyridyl]carbamoyl]phenyl]carbamate], 1.08 µM; as for `CC(C)(C)OC(=O)Nc1ccc(Cl)c(C(=O)Nc2ncc(-c3cnn(-c4ccc(F)cc4)c3)cc2F)c1` [Compound 92, tert-butyl (4-chloro-3-((3-fluoro-5-(1-(4-fluorophenyl)-1H-pyrazol-4 yl)pyridin-2-yl)carbamoyl)phenyl)carbamate], 0.13 µM.
As for `O=C(Nc1ncc(C#Cc2ccccc2)cc1F)c1cc(-c2noc(C3CCOC3)n2)ccc1Cl` (centres unmarked) [Compound 54], the IC50 amounted to 0.08 µM.
Compound `Cc1cc(C)n(C(=O)c2ccc(Cl)c(C(=O)Nc3ncc(C#Cc4ccccc4)cc3C)c2)n1` [Compound 72, 2-chloro-5-(3,5-dimethylpyrazole-1-carbonyl)-N-[3-methyl-5-(2-phenylethynyl)-2-pyridyl]benzamide] yielded an IC50 of 0.36 µM.
In the case of `Cc1cc(C#Cc2ccccc2)cnc1NC(=O)c1cc(OCC2CCOCC2)ccc1Cl` [Compound 20, 2-chloro-N-[3-methyl-5-(2-phenylethynyl)-2-pyridyl]-5-(tetrahydropyran-4-ylmethoxy)benzamide], half-maximal inhibition (IC50) required 0.09 µM.
As for `Cc1cc(OCc2ccccc2)ccc1NC(=O)c1ccc(N)cc1Cl` [Compound 89, 4-amino-N-(4-(benzyloxy)-2-methylphenyl)-2-chlorobenzamide], the figure is 7.67 µM; as for `O=C(Nc1ncc(C#Cc2ccccc2)cc1F)c1cc(OC[C@H]2COCCO2)ccc1Cl` [Compound 80, 2-chloro-5-[[(2R)-1,4-dioxan-2-yl]methoxy]-N-[3-fluoro-5-(2-phenylethynyl)-2-pyridyl]benzamide], 0.06 µM.
As to `COCCOc1ccc(Cl)c(C(=O)Nc2ncc(C#Cc3ccccc3)cc2C)c1` [Compound 24, 2-chloro-5-(2-methoxyethoxy)-N-[3-methyl-5-(2-phenylethynyl)-2-pyridyl]benzamide], half-maximal inhibition (IC50) was put at 0.23 µM.
Regarding `Cc1cc(C#Cc2cccc(F)c2)cnc1NC(=O)c1cc(NC(=O)C2COCCO2)ccc1Cl` (centres unmarked) [Compound 13, N-[4-chloro-3-[[5-[2-(3-fluorophenyl)ethynyl]-3-methyl-2-pyridyl]carbamoyl]phenyl]-1,4-dioxane-2-carboxamide], half-maximal inhibition (IC50) was put at 0.28 µM.
Consider `Cc1cc(C#Cc2ccccc2)cnc1NC(=O)c1cc(-c2cnn(C)c2)ccc1Cl` [Compound 78, 2-chloro-N-[3-methyl-5-(2-phenylethynyl)-2-pyridyl]-5-(1-methylpyrazol-4-yl)benzamide], for which the IC50 came to 0.47 µM.
Then `Cc1cc(OCc2ccccc2)ccc1NC(=O)c1cc(NC(=O)OC(C)(C)C)ccc1Cl` [Compound 25, tert-butyl (3-((4-(benzyloxy)-2-methylphenyl)carbamoyl)-4-chlorophenyl)carbamate], with 0.46 µM; and `Cc1cc(C#Cc2ccccn2)cnc1NC(=O)c1cc(NC(=O)OC(C)(C)C)ccc1Cl` [Compound 15, tert-butyl N-[4-chloro-3-[[3-methyl-5-[2-(2-pyridyl)ethynyl]-2-pyridyl]carbamoyl]phenyl]carbamate], with 0.37 µM; and `Cc1cc(C#Cc2cnccn2)cnc1NC(=O)c1cc(NC(=O)OC(C)(C)C)ccc1Cl` [Compound 39, tert-butyl N-[4-chloro-3-[[3-methyl-5-(2-pyrazin-2-ylethynyl)-2-pyridyl]carbamoyl]phenyl]carbamate], with 0.47 µM.
Then `Cc1nn(C)cc1-c1ccc(Cl)c(C(=O)Nc2ncc(C#Cc3ccccc3)cc2F)c1` [Compound 68, 2-chloro-5-(1,3-dimethylpyrazol-4-yl)-N-[3-fluoro-5-(2-phenylethynyl)-2-pyridyl]benzamide], with 0.22 µM.
As for `Cc1cc(C#Cc2cccc(F)c2)nc(C)c1NC(=O)c1cc(NC(=O)[C@H]2C[C@@H]2C)ccc1Cl` [Compound 49, 2-chloro-N-[6-[2-(3-fluorophenyl)ethynyl]-2,4-dimethyl-3-pyridyl]-5-[[(1S,2S)-2-methylcyclopropanecarbonyl]amino] benzamide], the IC50 was 1.09 µM.
As for `Cc1cc(C#Cc2ccccc2)cnc1NC(=O)c1cc(NC(=O)OC(C)(C)C)cc(F)c1Cl` [Compound 35, tert-butyl N-[4-chloro-3-fluoro-5-[[3-methyl-5-(2-phenylethynyl)-2-pyridyl]carbamoyl]phenyl]carbamate], the figure is 0.4 µM.
In the case of `O=C(Nc1ncc(C#Cc2ccc(F)cc2)cc1F)c1cc(NC(=O)C2CC2)ccc1Cl` [Compound 7, 2-chloro-5-(cyclopropanecarbonylamino)-N-[3-fluoro-5-[2-(4-fluorophenyl)ethynyl]-2-pyridyl]benzamide], the IC50 amounted to 0.15 µM.
`Cc1nc(C)c(-c2ccc(Cl)c(C(=O)Nc3ncc(C#Cc4ccccc4)cc3C)c2)s1` [Compound 70, 2-chloro-5-(2,4-dimethylthiazol-5-yl)-N-[3-methyl-5-(2-phenylethynyl)-2-pyridyl]benzamide] gave an IC50 of 0.26 µM.
Regarding `Cc1cc(C#Cc2ccccc2)cnc1NC(=O)c1cc(NC(=O)OC(C)(C)C)cnc1Cl` [Compound 52, tert-butyl N-[6-chloro-5-[[3-methyl-5-(2-phenylethynyl)-2-pyridyl]carbamoyl]-3-pyridyl]carbamate], the IC50 was determined as 2.17 µM.
Then `Cc1cc(C#Cc2ccccc2)cnc1NC(=O)c1cc(-c2cnn(C3CCOCC3)c2)ccc1Cl` [Compound 65, 2-chloro-N-[3-methyl-5-(2-phenylethynyl)-2-pyridyl]-5-(1-tetrahydropyran-4-ylpyrazol-4-yl)benzamide], with 0.2 µM; and `Cc1cc(C#Cc2ccccc2)cnc1N1Cc2ccc(OCC3CCOCC3)cc2C1=O` [Compound 82, 2-(3-methyl-5-(phenylethynyl)pyridin-2-yl)-6-((tetrahydro-2H-pyran-4-yl)methoxy)isoindolin-1-one], with 0.39 µM.
Then `CC(C)(C)OC(=O)Nc1ccc(Cl)c(C(=O)Nc2c(F)cc(C#Cc3ccccc3)nc2F)c1` [Compound 40, tert-butyl N-[4-chloro-3-[[2,4-difluoro-6-(2-phenylethynyl)-3-pyridyl]carbamoyl]phenyl]carbamate], with 0.47 µM.
On to `Cc1cc(C#Cc2ccc(F)cc2)cnc1NC(=O)c1cc(NC(=O)C2COCCO2)ccc1Cl` (centres unmarked) [Compound 14, N-[4-chloro-3-[[5-[2-(4-fluorophenyl)ethynyl]-3-methyl-2-pyridyl]carbamoyl]phenyl]-1,4-dioxane-2-carboxamide], for which 0.23 µM corresponded to half-maximal inhibition (IC50).
`Cc1cc(C#Cc2ccccc2)cnc1NC(=O)c1cc(C(=O)N2CCCC2C)ccc1Cl` (centres unmarked) [Compound 69, 2-chloro-N-[3-methyl-5-(2-phenylethynyl)-2-pyridyl]-5-(2-methylpyrrolidine-1-carbonyl)benzamide] gave a concentration for half-maximal inhibition (IC50) of 0.23 µM.
`Cc1cc(C#Cc2ccccc2)cnc1NC(=O)c1cc(C(=O)NC(C)(C)CO)ccc1Cl` [Compound 17, 4-chloro-N1-(2-hydroxy-1,1-dimethyl-ethyl)-N3-[3-methyl-5-(2-phenylethynyl)-2-pyridyl]benzene-1,3-dicarboxamide] displayed an IC50 of 0.18 µM.
As for `Cc1nc(C)c(-c2ccc(Cl)c(C(=O)Nc3ncc(C#Cc4ccccc4)cc3F)c2)s1` [Compound 67, 2-chloro-5-(2,4-dimethylthiazol-5-yl)-N-[3-fluoro-5-(2-phenylethynyl)-2-pyridyl]benzamide], the figure is 0.21 µM.
Then `Cc1ccc(NC(=O)OC(C)(C)C)cc1C(=O)Nc1ncc(C#Cc2ccccc2)cc1C` [Compound 46, tert-butyl N-[4-methyl-3-[[3-methyl-5-(2-phenylethynyl)-2-pyridyl]carbamoyl]phenyl]carbamate], with 0.87 µM; and `O=C(Nc1ncc(-c2ccn(-c3ccc(F)cc3)n2)cc1F)c1cc(NC(=O)C2COCCO2)ccc1Cl` (centres unmarked) [Compound 98, N-[4-chloro-3-[[3-fluoro-5-[1-(4-fluorophenyl)pyrazol-3-yl]-2-pyridyl]carbamoyl]phenyl]1,4-dioxane-2-carboxamide], with 0.56 µM; and `Cc1cc(-c2noc(-c3ccc(F)cc3)n2)cnc1NC(=O)c1cc(NC(=O)OC(C)(C)C)ccc1Cl` [Compound 95, tert-butyl N-[4-chloro-3-[[5-[5-(4-fluorophenyl)-1,2,4-oxadiazol-3-yl]-3-methyl-2-pyridyl]carbamoyl]phenyl]carbamate], with 0.23 µM.

The record behind these values is patent US20240190824A1, “INHIBITORS OF TREK (TWIK RELATED K+ CHANNELS) CHANNEL FUNCTION” (ONO PHARMACEUTICAL CO., LTD., priority 2019, published 2024).
